≈ marks a conversion by molar mass, not a printed value. Peptide text beside a SMILES is read from it.
Columns and labels:
[1] = system: human red blood cells (hRBC); assay type: cell-based; conditions: red cells of human, 1 h
Method: The peptides were tested for their hemolytic activity against human red blood cells (hRBC). Fresh hRBC were washed three times with phosphate buffered saline (PBS) and centrifuged for 10 min at 2000×g. Compounds (100 μg/mL) were incubated with 20% hRBC (v/v) for 1 h at 37° C. and shaking at 300 rpm. The final erythrocyte concentration was approximately 0.9×10^9 cells/mL. A value of 0% and 100% cell lyses, respectively, was determined by incubation of hRBC in the presence of PBS containing 0.001% acetic acid and 2.5% Triton X-100 in H2O, respectively. The samples were centrifuged, the supernatants were 8-fold diluted in PBS buffer and the optical densities (OD) were measured at 540 nm. The 100% lyses value (OD540H2O) gave an OD50 of approximately 0.5-1.0.
Percent hemolysis was calculated as follows: (OD540peptide/OD540H2O)×100%.

in vitro = assay type: cell-based
Method: The cytotoxicity of the peptides to HELA cells (Acc57) and COS-7 cells (CRL-1651) was determined using the MTT reduction assay (T. Mossman, J. Immunol. Meth. 1983, 65, 55-63; M. V. Berridge, A. S. Tan, Arch. Biochem. Biophys. 1993, 303, 474-482). Briefly, the method was as follows: 4000 HELA cells/well and 3400 COS-7 cells/well were seeded and grown in 96-well microtiter plates for 24 h at 37° C. at 5% CO2. Thereafter, time zero (Tz) was determined by MTT reduction (see below). The supernatant of the remaining wells was discarded, and fresh medium and compounds in serial dilutions (12.5, 25 and 50 μg/mL, triplicates) were pipetted into the wells. After incubation of the cells for 48 h at 37° C. at 5% CO2 the supernatant was discarded again and 100 μL MTT reagent (0.5 mg/mL in RPMI1640 and DMEM, respectively)/well was added. Following incubation at 37° C. for 2-4 h the media were aspirated and the cells were spiked (100 μL isopropanol/well). The absorbance of the solubilized formazan was measured at 595 nm (OD595peptide). For each concentration averages were calculated from triplicates. The percentage of growth was calculated as follows: (OD595peptide-OD595Tz-OD595Empty well)/(OD595Tz-OD595Empty well)×100%. The GI50 (Growth Inhibition) concentrations were calculated for each peptide by using a trend line function for the concentrations (50, 25, 12.5 and 0 μg/mL), the corresponding percentages and the value 50, (=TREND (C50:C0%50:%0,50).

Shigella boydii DSM 7532 = conditions: Mueller-Hinton II broth + 0.02% BSA, 18-20 hours at 37° C.
Method: […] colony forming units (CFU)/mL. Aliquots (50 μl) of inoculate were added to 50 μl of MH broth+0.02% BSA containing the peptide in serial two-fold dilutions. The following microorganisms were used to determine antibiotic selectivity of the peptides: Bacillus subtilis DSM 10 and Shigella boydii DSM 7532.

Structure (SMILES) | Hemolysis at 100 μg/mL [1] [%] | GI50 at 48 h (in vitro; African green monkey) [µg/mL] | GI50 at 48 h (in vitro; human) [µg/mL] | Shigella boydii DSM 7532 MIC (Shigella boydii DSM 7532) [µg/mL]
CC[C@H](C)[C@@H]1NC(=O)[C@H](CCCNC(=N)N)NC(=O)[C@H](Cc2c[nH]c3ccccc23)NC(=O)[C@@H]2CCCN2C(=O)[C@H]2CCCN2C(=O)[C@H](CCN)NC(=O)[C@H](CCCNC(=N)N)NC(=O)[C@H](CC(N)=O)NC(=O)[C@H](CCN)NC(=O)[C@H](Cc2c[nH]c3ccccc23)NC(=O)[C@H](CC(N)=O)NC(=O)[C@@H](CCN)NC(=O)[C@H]([C@@H](C)CC)NC(=O)[C@H](CCCNC(=N)N)NC1=O [Example 17] (HELM PEPTIDE1{W.R.I.R.I.[NCC[C@@H](N[*:1])C(=O)[*:2]].N.W.[Dab].N.R.[Dab].[dP].P}$PEPTIDE1,PEPTIDE1,1:R1-14:R2$$$V2.0) | 0.2 | 44 (≈ 24.6 µM) | 38 (≈ 21.2 µM) | 4
CC[C@H](C)[C@@H]1NC(=O)[C@H](CCCNC(=N)N)NC(=O)[C@H](Cc2c[nH]c3ccccc23)NC(=O)[C@@H]2CCCN2C(=O)[C@H]2CCCN2C(=O)[C@H](C)NC(=O)[C@H](CCC(N)=O)NC(=O)[C@H](CC(C)C)NC(=O)[C@H](CCCNC(=N)N)NC(=O)[C@H](CCC(N)=O)NC(=O)[C@H](Cc2ccc(O)cc2)NC(=O)[C@@H](CCCNC(=N)N)NC(=O)[C@H]([C@@H](C)CC)NC(=O)[C@H](CCCNC(=N)N)NC1=O [Example 14] (HELM PEPTIDE1{W.R.I.R.I.[dR].Y.Q.R.L.Q.A.[dP].P}$PEPTIDE1,PEPTIDE1,1:R1-14:R2$$$V2.0) | 0.0 | > 50 | > 50 | 16

Reference: patent publication US8895499B2, “β-hairpin peptidomimetics” (Polyphor AG, priority 2010, dated 2014)
